pIC50: −log10 of the molar value. Positions of bridges follow the written chain, without caps; N, C: chain ends. Non-standard residues stand in square brackets, D forms with d. Residues, ends and D or L forms follow the SMILES beside them.

For the first experiment, the system named is X4-tropic HIV-1 NL4-3. Particulars: from IC50 against two HIV-1 strains (NL4-3, DTV). The source says:
These cells contain the β-galactosidase reporter gene under the control of the HIV-1 promoter. Thus, activation of the β-galactosidase reporter gene allows to measure the efficiency of HIV-1 infection and thus to quantitate the potency of HIV-1 inhibitors (Detheux M. et al., 2000; Journal of Experimental Medicine 192, 1501-1508; Münch et al., 2002; Antimicrobial Agents and Chemotherapy 46, 982-990).
To perform a typical infection assay, P4-CCR5 cells (Charneau et al., 1994; Journal of Molecular Biology 241, 651-662; Charneau et al., Virology. 1994 205, 247-53) were kept in RPMI 1640 medium supplemented with 10 volume % FCS. This cell line coexpresses CD4 and both HIV-1 coreceptors CCR5 and CXCR4 and contains the β-galactosidase gene under the control of the HIV-1 promoter. Virus stocks were generated by the calcium coprecipitation method as described (Detheux et al., J Exp Med. 192:1501-8; 2000), and the p24 antigen levels were quantitated with an HIV p24 ELISA kit obtained through the NIH AIDS Reagent Program. Cells were seeded in flat-bottomed 96-well dishes, cultured overnight, and incubated with the different doses of peptide for 2 h before infection with virus containing 1 ng of p24 antigen in a total volume of […] of medium. After overnight incubation, cells were washed twice and cultivated in fresh culture medium without inhibitory peptide. Three days after infection the cells were lysed, and infectivity was quantitated using the Galacto-Light Plus™ chemiluminescence reporter assay kit (Tropix, Bedford, Mass.) as recommended by the manufacturer. All infections were performed in quintuplicate.
Take `CC[C@H](C)[C@H](NC(=O)[C@H](C)NC(=O)[C@H](CCC(=O)O)NC(=O)[C@@H](N)CC(C)C)C(=O)N1CCC[C@H]1C(=O)N[C@H]1CSSC[C@@H](C(=O)N[C@@H](Cc2ccccc2)C(=O)N[C@@H](CC(C)C)C(=O)N[C@@H](Cc2ccccc2)C(=O)NCC(=O)N[C@@H](CCCCN)C(=O)N2CCC[C@H]2C(=O)N[C@@H](Cc2ccccc2)C(=O)N[C@H](C(=O)N[C@@H](Cc2ccccc2)C(=O)O)C(C)C)NC(=O)[C@@H]2CCCN2C(=O)[C@@H]2CCCN2C(=O)[C@H]([C@@H](C)CC)NC(=O)[C@H](CO)NC1=O` [VIR-280] (H-LEAIPCSIPPCFLFGKPFVF-OH; disulfide 6-11): the “increase in anti-HIV activity in comparison to VIRIP” value is on record as 161 fold.

Still in this experiment, the particulars now being: read-out: IC50 NL4-3; P4-CCR5 cells, HIV-1 NL4-3, peptide 2 h before infection, readout three days after infection.
One may read the pIC50 as the negative decadic logarithm of the IC50, by convention in mol/L. For the compound `CC[C@H](C)[C@H](NC(=O)[C@@H]1CCCN1C(=O)[C@@H](NC(=O)[C@H](C)NC(=O)[C@H](CCC(=O)O)NC(=O)[C@@H](N)CC(C)C)[C@@H](C)CC)C(=O)N[C@@H](CO)C(=O)N[C@H](C(=O)N1CCC[C@H]1C(=O)N1CCC[C@@H]1C(=O)N[C@@H](CCC(=O)O)C(=O)N[C@H](C(=O)N[C@@H](Cc1ccccc1)C(=O)N[C@@H](Cc1ccccc1)C(=O)NCC(=O)N[C@@H](CCCCN)C(=O)N1CCC[C@H]1C(=O)N[C@@H](Cc1ccccc1)C(=O)N[C@H](C(=O)N[C@@H](Cc1ccccc1)C(=O)O)C(C)C)C(C)C)[C@@H](C)CC` [VIR-290, LEAIPISIPpEVFFGKPFVF] (H-LEAIPISIP[dP]EVFFGKPFVF-OH), the pIC50 is 6.25. In the case of `CC[C@H](C)[C@H](NC(=O)[C@@H]1CCCN1C(=O)[C@@H](NC(=O)[C@H](C)NC(=O)[C@H](CCC(=O)O)NC(=O)[C@@H](N)CC(C)C)[C@@H](C)CC)C(=O)N[C@@H](CO)C(=O)N[C@H](C(=O)N1CCC[C@H]1C(=O)N1CCC[C@@H]1C(=O)N[C@@H](CCC(=O)O)C(=O)N[C@H](C(=O)N[C@@H](Cc1c[nH]c2ccccc12)C(=O)N[C@@H](Cc1ccccc1)C(=O)N[C@@H](CC(N)=O)C(=O)N[C@@H](CCCCN)C(=O)N1CCC[C@H]1C(=O)N[C@@H](Cc1ccccc1)C(=O)N[C@H](C(=O)N[C@@H](Cc1ccccc1)C(=O)O)C(C)C)C(C)C)[C@@H](C)CC` [VIR-298, LEAIPISIPpEVWFNKPFVF] (H-LEAIPISIP[dP]EVWFNKPFVF-OH), the pIC50 was 6.01.

For the compound `CC[C@H](C)[C@H](NC(=O)[C@H](C)NC(=O)[C@H](CCC(=O)O)NC(=O)[C@@H](N)CC(C)C)C(=O)N1CCC[C@H]1C(=O)N[C@@H](CCSC)C(=O)NCC(=O)N[C@H](C(=O)N1CCC[C@H]1C(=O)N1CCC[C@@H]1C(=O)N[C@@H](CCC(=O)O)C(=O)N[C@H](C(=O)N[C@@H](Cc1ccccc1)C(=O)N[C@@H](Cc1ccccc1)C(=O)NCC(=O)N[C@@H](CCCCN)C(=O)N1CCC[C@H]1C(=O)N[C@@H](Cc1ccccc1)C(=O)N[C@H](C(=O)N[C@@H](Cc1ccccc1)C(=O)O)C(C)C)C(C)C)[C@@H](C)CC` [VIR-320, LEAIPMGIPpEVFFGKPFVF] (H-LEAIPMGIP[dP]EVFFGKPFVF-OH), the negative logarithm of the IC50 (pIC50) was 6.56. Same read-out and setting: to `CC[C@H](C)[C@H](NC(=O)[C@H](C)NC(=O)[C@H](CCC(=O)O)NC(=O)[C@@H](N)CC(C)C)C(=O)N1CCC[C@H]1C(=O)N[C@@H](CCSC)C(=O)NCC(=O)N[C@H](C(=O)N1CCC[C@H]1C(=O)N1CCC[C@@H]1C(=O)N[C@@H](CCC(=O)O)C(=O)N[C@H](C(=O)N[C@@H](Cc1ccccc1)C(=O)N[C@@H](Cc1ccccc1)C(=O)N[C@@H](CC(N)=O)C(=O)N[C@@H](CCCCN)C(=O)N1CCC[C@H]1C(=O)N[C@@H](Cc1ccccc1)C(=O)N[C@H](C(=O)N[C@@H](Cc1ccccc1)C(=O)O)C(C)C)C(C)C)[C@@H](C)CC` [VIR-322, LEAIPMGIPpEVFFNKPFVF] (H-LEAIPMGIP[dP]EVFFNKPFVF-OH) belongs 6.08; to `CC[C@H](C)[C@H](NC(=O)[C@H](C)NC(=O)[C@H](CCC(=O)O)NC(=O)[C@@H](N)CC(C)C)C(=O)N1CCC[C@H]1C(=O)N[C@@H](CCSC)C(=O)NCC(=O)N[C@H](C(=O)N1CCC[C@H]1C(=O)N1CCC[C@@H]1C(=O)N[C@@H](CCC(=O)O)C(=O)N[C@@H](Cc1ccccc1)C(=O)N[C@@H](CC(C)C)C(=O)N[C@@H](Cc1ccccc1)C(=O)N[C@@H](CC(N)=O)C(=O)N[C@@H](CCCCN)C(=O)N1CCC[C@H]1C(=O)N[C@@H](Cc1ccccc1)C(=O)N[C@H](C(=O)N[C@@H](Cc1ccccc1)C(=O)O)C(C)C)[C@@H](C)CC` [VIR-323, LEAIPMGIPpEFLFNKPFVF] (H-LEAIPMGIP[dP]EFLFNKPFVF-OH), 6.03; to `CC[C@H](C)[C@H](NC(=O)[C@H](CC(=O)O)NC(=O)[C@H](CCC(=O)O)NC(=O)[C@@H](N)CC(C)C)C(=O)N1CCC[C@H]1C(=O)N[C@@H](CCSC)C(=O)NCC(=O)N[C@H](C(=O)N1CCC[C@H]1C(=O)N1CCC[C@@H]1C(=O)N[C@@H](CCC(=O)O)C(=O)N[C@H](C(=O)N[C@@H](C)C(=O)N[C@@H](Cc1ccccc1)C(=O)N[C@@H](CC(N)=O)C(=O)N[C@@H](CCCCN)C(=O)N1CCC[C@H]1C(=O)N[C@@H](Cc1ccccc1)C(=O)N[C@H](C(=O)N[C@@H](Cc1ccccc1)C(=O)O)C(C)C)C(C)C)[C@@H](C)CC` [VIR-326, LEDIPMGIPpEVAFNKPFVF] (H-LEDIPMGIP[dP]EVAFNKPFVF-OH), 6.02. Same read-out and setting: to `CC[C@H](C)[C@H](NC(=O)[C@H](C)NC(=O)[C@H](CCC(=O)O)NC(=O)[C@@H](N)CC(C)C)C(=O)N1CCC[C@H]1C(=O)N[C@@H](CCSC)C(=O)NCC(=O)N[C@H](C(=O)N1CCC[C@H]1C(=O)N1CCC[C@@H]1C(=O)N[C@@H](CCC(=O)O)C(=O)N[C@H](C(=O)N[C@@H](Cc1c[nH]c2ccccc12)C(=O)N[C@@H](Cc1ccccc1)C(=O)N[C@@H](CC(N)=O)C(=O)N[C@@H](CCCCN)C(=O)N1CCC[C@H]1C(=O)N[C@@H](Cc1ccccc1)C(=O)N[C@H](C(=O)N[C@@H](Cc1ccccc1)C(=O)O)C(C)C)C(C)C)[C@@H](C)CC` [VIR-328, LEAIPMGIPpEVWFNKPFVF] (H-LEAIPMGIP[dP]EVWFNKPFVF-OH) belongs 6.16; to `CC[C@H](C)[C@H](NC(=O)[C@H](C)NC(=O)[C@H](CCC(=O)O)NC(=O)[C@@H](N)CC(C)C)C(=O)N1CCC[C@H]1C(=O)N[C@H]1CSSC[C@@H](C(=O)N[C@@H](CC(C)C)C(=O)N[C@@H](C)C(=O)N[C@@H](Cc2ccccc2)C(=O)N[C@@H](C)C(=O)N[C@@H](CCCCN)C(=O)N2CCC[C@H]2C(=O)N[C@@H](Cc2ccccc2)C(=O)N[C@H](C(=O)N[C@@H](Cc2ccccc2)C(=O)O)C(C)C)NC(=O)[C@@H]2CCCN2C(=O)[C@@H]2CCCN2C(=O)[C@H]([C@@H](C)CC)NC(=O)[C@H](CO)NC1=O` [VIR-346] (H-LEAIPCSIPPCLAFAKPFVF-OH; disulfide 6-11), 6.27; to `CC[C@H](C)[C@H](NC(=O)[C@H](C)NC(=O)[C@H](CCC(=O)O)NC(=O)[C@@H](N)CC(C)C)C(=O)N1CCC[C@H]1C(=O)N[C@@H](CS)C(=O)N[C@@H](CO)C(=O)N[C@H](C(=O)N1CCC[C@H]1C(=O)N1CCC[C@@H]1C(=O)N[C@@H](CS)C(=O)N[C@H](C(=O)N[C@@H](Cc1ccccc1)C(=O)N[C@@H](Cc1ccccc1)C(=O)NCC(=O)N[C@@H](CCCCN)C(=O)N1CCC[C@H]1C(=O)N[C@@H](Cc1ccccc1)C(=O)N[C@H](C(=O)N[C@@H](Cc1ccccc1)C(=O)O)C(C)C)C(C)C)[C@@H](C)CC` [VIR-350, LEAIPCSIPpCVFFGKPFVF] (H-LEAIPCSIP[dP]CVFFGKPFVF-OH), 6.70.

On to `CC[C@H](C)[C@H](NC(=O)[C@H](C)NC(=O)[C@H](CCC(=O)O)NC(=O)[C@@H](N)CC(C)C)C(=O)N1CCC[C@H]1C(=O)N[C@H]1CSSC[C@@H](C(=O)N[C@H](C(=O)N[C@@H](C)C(=O)N[C@@H](Cc2ccccc2)C(=O)N[C@@H](CC(N)=O)C(=O)N[C@@H](CCCCN)C(=O)N2CCC[C@H]2C(=O)N[C@@H](Cc2ccccc2)C(=O)N[C@H](C(=O)N[C@@H](Cc2ccccc2)C(=O)O)C(C)C)C(C)C)NC(=O)[C@H]2CCCN2C(=O)[C@@H]2CCCN2C(=O)[C@H]([C@@H](C)CC)NC(=O)CNC1=O` [VIR-355, LEAIPCGIPpCVAFNKPFVF] (H-LEAIPCGIP[dP]CVAFNKPFVF-OH; disulfide 6-11), for which the negative-log IC50 (pIC50) is 6.24. Still for that read-out and setting: with `CC[C@H](C)[C@H](NC(=O)[C@H](C)NC(=O)[C@H](CCC(=O)O)NC(=O)[C@@H](N)CC(C)C)C(=O)N1CCC[C@H]1C(=O)N[C@H]1CSSC[C@@H](C(=O)N[C@@H](Cc2ccccc2)C(=O)N[C@@H](C)C(=O)N[C@@H](Cc2ccccc2)C(=O)N[C@@H](CC(N)=O)C(=O)N[C@@H](CCCCN)C(=O)N[C@@H](CC(=O)O)C(=O)N[C@@H](Cc2ccccc2)C(=O)N[C@H](C(=O)N[C@@H](Cc2ccccc2)C(=O)O)C(C)C)NC(=O)[C@@H]2CCCN2C(=O)[C@@H]2CCCN2C(=O)[C@H]([C@@H](C)CC)NC(=O)[C@H](CO)NC1=O` [VIR-356] (H-LEAIPCSIPPCFAFNKDFVF-OH; disulfide 6-11) the figure was 6.15.

For the origin of these results see patent US7655629B2, “Peptides and their use for the treatment of HIV infections” (priority 2002, dated 2010).
